Measured values published in US4788193A, “1-aryloxy-3-(substituted alkylamino)-2-propanols, pharmaceutical compositions and use” (Merck & Co., Inc., priority 1987, dated 1988).

Key:
Type in all cases: cell-based
β2 (trachea) = target: T1, β2 (trachea) (Cavia porcellus, UniProt Q8K4Z4); experiment: inhibition of isoproterenol-induced relaxation in isolated guinea pig tracheal chains contracted with PGF2α (β2); details: read-out: pA2 values β2 (trachea) (converted)
T1 construct: isolated guinea pig tracheal chains; from tissue; host or cells: isolated guinea pig tracheal chains
T1 sequence (Q8K4Z4 whole entry): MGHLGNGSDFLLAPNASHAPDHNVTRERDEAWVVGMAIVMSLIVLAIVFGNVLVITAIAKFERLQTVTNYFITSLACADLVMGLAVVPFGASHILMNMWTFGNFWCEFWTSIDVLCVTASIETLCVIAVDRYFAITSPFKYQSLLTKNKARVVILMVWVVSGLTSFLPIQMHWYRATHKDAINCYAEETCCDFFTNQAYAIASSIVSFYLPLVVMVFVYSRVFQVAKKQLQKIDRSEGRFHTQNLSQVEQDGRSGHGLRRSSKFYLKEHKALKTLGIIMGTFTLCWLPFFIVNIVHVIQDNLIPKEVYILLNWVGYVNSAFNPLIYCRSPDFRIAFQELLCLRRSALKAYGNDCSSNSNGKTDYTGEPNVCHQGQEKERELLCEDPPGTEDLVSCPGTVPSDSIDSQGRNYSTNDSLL
Description: (§1) The in vitro β-adrenergic blocking properties of the novel compounds of this invention were evaluated in accordance with standard procedures. The interaction with the β1 -receptor was determined via inhibition of the positive chronotropic actions of isoproterenol in isolated guinea pig atrial preparations. β2 potency was determined by using isolated guinea pig tracheal chains contracted with PGF2@ and by measuring inhibition of isoproterenol-induced relaxation.

β1-receptor [1] = target: T2, β1-receptor (Cavia porcellus, UniProt H0W3H1); experiment: inhibition of the positive chronotropic actions of isoproterenol in isolated guinea pig atrial preparations (β1); details: isolated guinea pig atria, isoproterenol chronotropic action; read-out: pA2 values β1 (atria) (converted)
T2 construct: isolated guinea pig atrial preparations; from tissue; host or cells: isolated guinea pig atria
T2 sequence (H0W3H1 1-470): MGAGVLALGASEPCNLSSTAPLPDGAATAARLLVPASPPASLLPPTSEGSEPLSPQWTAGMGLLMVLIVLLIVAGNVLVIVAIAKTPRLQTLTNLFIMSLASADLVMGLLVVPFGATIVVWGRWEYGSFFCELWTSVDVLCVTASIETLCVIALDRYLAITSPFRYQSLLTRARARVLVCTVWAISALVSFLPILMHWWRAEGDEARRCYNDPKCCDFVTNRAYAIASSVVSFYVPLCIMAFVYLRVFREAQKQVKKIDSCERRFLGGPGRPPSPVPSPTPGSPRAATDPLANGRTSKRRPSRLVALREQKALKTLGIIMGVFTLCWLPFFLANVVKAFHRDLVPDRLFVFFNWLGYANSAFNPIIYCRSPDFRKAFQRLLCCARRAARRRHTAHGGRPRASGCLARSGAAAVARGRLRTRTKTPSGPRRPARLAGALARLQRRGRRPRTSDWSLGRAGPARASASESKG
Description: as §1

β1-receptor [2] = experiment: as above; details: β1 (atria) versus β2 (trachea), from pA2 values
Description: as §1

| SMILES | Kb (β2 (trachea)) | Kb (β1-receptor [1]) | Cardioselectivity ratio (β1-receptor [2]) |
| --- | --- | --- | --- |
| CN(C)CCNCC(O)COc1ccccc1C#N (centres unmarked) [N(CH3)2, 1-(2-cyanophenoxy)-3-[2-(dimethylamino)ethyl]-amino-2-propanol] | 1120 nM | 43.7 nM |  |
| N#Cc1ccccc1OCC(O)CNCCN1CCOCC1 (centres unmarked) | 89.1 nM | 15.5 nM | 5.8 |
| N#Cc1ccccc1OCC(O)CNCCN1CCNCC1 (centres unmarked) | 64.6 nM | 25.7 nM | 2.5 |

Second part, led by results:

| Kb (β2 (trachea)) | Kb (β1-receptor [1]) | SMILES | Cardioselectivity ratio (β1-receptor [2]) |
| --- | --- | --- | --- |
| 138 nM | 23.4 nM | N#Cc1ccccc1OCC(O)CNCCc1cccnc1 (centres unmarked) | 5.9 |
| 34700 nM | 34.7 nM | N#Cc1ccccc1OCC(O)CNCCc1ccccn1 (centres unmarked) | 1000 |
| 302 nM | 74.1 nM | N#Cc1ccccc1OCC(O)CNCCc1ccncc1 (centres unmarked) | 4.1 |
